# Laboratory results as given in publication PMC7037393, “Synthesis, Structural, and Cytotoxic Properties of New Water-Soluble Copper(II) Complexes Based on 2,9-Dimethyl-1,10-Phenanthroline and Their One Derivative Containing 1,3,5-Triaza-7-Phosphaadamantane-7-Oxide” (Molecules, 2020).
# Where two headings read alike, the source gives them in different places.
# Experiments:
# [1] = system: HeLa (human cervix carcinoma); set-up: method as in PMID 31237306; conditions: cited from earlier work
# [2] = system: MCF7 (human breast adenocarcinoma); set-up: method as in PMID 31237306; conditions: cited from earlier work
# NHDF cells [3] = system: NHDF cells; set-up: method as in PMID 31237306; conditions: cited from earlier work
# [4] = system: LoVo (human colorectal adenocarcinoma); set-up: method as in earlier work; conditions: cited from earlier work
# [5] = system: A549 (human lung carcinoma); set-up: method as in PMID 31237306; conditions: cited from earlier work
# [6] = system: HeLa (human cervix carcinoma); assay: Cytotoxicity on HeLa cells, quantitative suspension test according to EN 14476; format: cell-based; conditions: observed 4 days, aqua media
# Experimental: (§1) Normal human dermal fibroblasts (NHDF) (PromoCell, C-12302) were used as normal cells and LoVo (human colorectal adenocarcinoma, ATCC® CCL-229™), A549 (human lung carcinoma, ATCC, No. CCL-185 TM), MCF-7 (human breast adenocarcinoma, ATCC, No. HTB-22^TM) and HeLa (human cervix carcinoma, ATCC, No. CCL-2 TM) were used as cancer cells. They were cultured in DMEM, DMEM–F12 or EMEM (Lonza, CA, USA). Media were supplemented with 10% FBS (Biological Industries, Kibbutz Beit-Haemek, Israel), 2 mM L-glutamine (Biological Industries, Israel), 100 U/mL of penicillin and 100 µg/mL of streptomycin (Sigma, Neustadt an der Weinstrasse, Germany).
# (§2) The 100 μL of suspension of NHDF, A549, HeLa, LoVo, and MCF7 cells at a density of 4 × 10^4 cells mL^−1 were incubated in a 96-well polystyrene plate (NUNC, Denmark) for 24 h. Product test solutions were prepared in DMEM, DMEM–F12, or EMEM supplemented with additional 2% FBS and 2 mM L-glutamine. Solutions of the reagents at concentrations from 460 (for 1), 454 (2), […] (3), 1242 (Cu(NO3)2), 1732 (PTA=O), and 1440 µM (dmphen) to 4.60 × 10^−6, 4.54 × 10^−6, 4.69 × 10^−6, 1.24 × 10^−5, 1.73 × 10^−5, and 1.44 × 10^−5 µM, respectively, were prepared and transferred (100 μL) into cell culture units (wells of microtiter plates) containing monolayer of cells. Eight units were inoculated with each dilution. Plates were incubated in 37 °C, 5% CO2 and observed daily for 4 days for the development of cytotoxic effect, using an inverted microscope (Olympus Corp., Hamburg, Germany, Axio Observer, Carl Zeiss MicroImaging GmbH). Then the wells were washed in phosphate buffered saline (PBS) and stained using DAPI (4′,6-diamidino-2-phenylindole) and propidium iodide (Merck, Darmstadt, Germany). The study used the fact that DAPI is able to be combined with cellular DNA, permeate through the membrane of cell, rapidly enter the nucleus of living cells and bind with DNA to form a DAPI-DNA complex. […] In cell culture these are cells that are apoptotic or damaged by any physical or chemical agent. Therefore, if these two fluorochrome are given at the same time, DAPI will get to healthy cells faster, while propidium iodide will stain dead or dying cells. The calculation of the ratio of cells counted on a specific area, allows to determine the potency of a substance in inhibiting a specific biological function (IC50).
# NHDF cells [7] = assay: Cytotoxicity on normal human dermal fibroblasts, quantitative suspension test according to EN 14476 (DAPI/propidium iodide); format: cell-based; conditions: observed 4 days, aqua media
# Experimental: as §1, §2
# [8] = system: LoVo (human colorectal adenocarcinoma); assay: Cytotoxicity on LoVo cells, quantitative suspension test according to EN 14476; format: cell-based; conditions: observed 4 days, aqua media
# Experimental: as §1, §2
# [9] = system: MCF7 (human breast adenocarcinoma); assay: Cytotoxicity on MCF7 cells, quantitative suspension test according to EN 14476; format: cell-based; conditions: observed 4 days, aqua media
# Experimental: as §1, §2
# [10] = system: A549 (human lung carcinoma); assay: Cytotoxicity on A549 cells, quantitative suspension test according to EN 14476; format: cell-based; conditions: observed 4 days, aqua media
# Experimental: as §1, §2
# apo-Tf = conditions: cited from earlier work
# [11] = system: normal cell lines like MRC5, HEK293T, or HaCat; conditions: cited from earlier work
# A549 cell line = conditions: read-out: IC50 value for A549 cell line; cited from earlier work
# A549 or HeLa lines = conditions: cited from earlier work
# [12] = read-out: IC50 value, cytotoxic effect on A549 or HeLa lines, A549 or HeLa
compound,measurement,setting,value
N.N.[Cl][Pt][Cl] [Cisplatin],IC50,[1],16.6 ± 3.1 µM
same,IC50,[2],33.3 ± 4.2 µM
same,IC50,NHDF cells [3],16.6 ± 2.1 µM
same,IC50,[4],9.12 ± 0.005 µM
same,IC50,[5],33.3 ± 4.2 µM
"O=[N+]([O-])[O-].O=[N+]([O-])[O-].[Cu+2] [Cu(NO3)2, reference compound]",IC50,[6],19.1 ± 2.9 µM
same,IC50,NHDF cells [7],310 ± 47 µM
same,IC50,[8],38.8 ± 5.8 µM
same,IC50,[9],155 ± 23 µM
same,IC50,[10],155 ± 23 µM
"Cc1ccc2ccc3ccc(C)nc3c2n1 [Dmphen, 2,9-dimethyl-1,10-phenanthroline]",IC50,"[6]; Homo sapiens, 96 h",720 ± 108 µM
same,IC50,"[8]; Homo sapiens, 96 h",360 ± 54 µM
"CS(C)=O.[Cl-].[Cl-].[Cl-].[Cl-].[Ru+3].c1c[nH+]c[nH]1.c1c[nH]cn1 [NAMI-A, Imidazolium-trans-tetrachloro(dimethylsulfoxide)imidazoleruthenium(III)]",association constant with apo-Tf,apo-Tf,12800 M⁻¹
COc1ccc(P(CO)c2ccc(OC)cc2)cc1.Cc1ccc2ccc3ccc(C)nc3c2n1.[Cu+].[I-] [[Cu(iodide)(dmphen)(P(p-OCH3-Ph)2CH2OH)]],concentration toxic for normal cell lines,[11],32 to 43 µM
same,IC50,A549 cell line,62 µM
[Cr+3].c1cnc2c(c1)ccc1cccnc12.c1cnc2c(c1)ccc1cccnc12.c1cnc2c(c1)ccc1cccnc12 [chromium(III)-phen],"association constant, apo-Tf system",apo-Tf,150000 M⁻¹
"[Cu2(sal-D,L-glu)2(imidazole)2]",IC50,A549 or HeLa lines,> 100 µM
"[Cu2(sal-D,L-glu)2(isoquinoline)2]∙2EtOH",IC50,A549 or HeLa lines; [12],> 100 µM
[Cu(EtOH)2(imidazole)4],IC50,A549 or HeLa lines,> 100 µM
[Cu(iodide)(dmphen)(P(p-OCH3-Ph)2CH2-SarGly)],IC50,A549 cell line,> 100 µM
[Cu(sal-5-met-L-glu)(H2O)]∙H2O,IC50,A549 or HeLa lines; [12],> 100 µM
